Measurements published in US10221177B2 (HYDRA BIOSCIENCES, INC., priority 2014, dated 2019).
pIC50: −log10 of the molar value. Blank lines part the entries; values can stand above or below the compound they belong to.

Key:
human TRPA1 = human TRPA1 (Homo sapiens (Human), UniProt O75762); assay: In vitro inhibition of human TRPA1, whole cell patch configuration; type: cell-based; settings: current activation 10 μM AITC, tested concentrations 320 pM to 3.2 μM, read-out: hTRPA1 IC50
Procedure, shortened: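 Whole-cell patch clamp, bath 150 mM NaCl, 10 mM HEPES, 1 mM EGTA, 3 mM MgCl2, pH 7.4 (sometimes 2 mM CaCl2, 1 mM MgCl2). Currents recorded continuously at −60 mV or by 400 ms ramps from −40 mV holding every 4 s; inward/outward currents taken at −80/80 mV, with controlled-temperature focal perfusion.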

[1] = tested on: formalin-induced pain behaviors in the rat; assay: Formalin-induced pain test (formalin model), duration of pain behaviors; type: in vivo
Description: Exemplary compounds of the invention were tested in the formalin-induced pain test reported by Dubuisson et al., Pain 1977 December; 4(2):161-74 (incorporated herein by reference in its entirety). Briefly, dilute formalin (50 μL of 3% formalin) was injected into the plantar surface of the hind paw of a rat. […] The individual responsible for counting the pain behaviors in a particular study was blinded to the treatment groups.
The initial phase (Phase I: 0-5 min) is thought to have a significant component that is dependent upon direct activation of afferent fibers by formalin and functional TRPA1 (McNamara et al., 2007).
Investigators studied oral administration of compounds of the invention at the doses presented in Table 3 on pain behaviors in the formalin model in the rat. Compounds were formulated as solutions in water with various solvents and excipients including dimethyl sulfoxide (DMSO), polyethylene glycol (15)-hydroxystearate (Solutol®, Sigma-Aldrich), caprylocaproyl macrogol-8 glyceride (Labrasol®, Sigma-Aldrich), polysorbate-80 (Tween®-80, Sigma-Aldrich), and polyoxyl 35 castor oil (Cremophor® EL, BASF Corp.); or suspensions in methylcellulose as indicated in Table 3. Animals were dosed orally with the vehicle, or compounds of the invention one hour prior to intraplantar formalin. […] A decrease over Vehicle indicates a positive result. P values, when indicated, indicate significance compared Vehicle.

[2] = 1 mpk PO one hour prior to formalin, solution in 4% DMSO, 10% Solutol, 86% water
[3] = 3 mpk PO one hour prior to formalin, solution in 4% DMSO, 10% Solutol, 86% water
[4] = 10 mpk PO one hour prior to formalin, solution in 4% DMSO, 10% Solutol, 86% water
[5] = 1 mg/kg PO one hour prior to formalin, solution in 4% DMSO, 5% Tween-80, 20% Cremophor EL, 71% water
[6] = 3 mg/kg PO one hour prior to formalin, solution in 4% DMSO, 5% Tween-80, 20% Cremophor EL, 71% water
[7] = 10 mg/kg PO one hour prior to formalin, solution in 4% DMSO, 5% Tween-80, 20% Cremophor EL, 71% water
[8] = 30 mg/kg PO one hour prior to formalin, solution in 8% DMSO and 92% Labrasol

Sequence of human TRPA1 (O75762 whole entry, the tested form may be a part): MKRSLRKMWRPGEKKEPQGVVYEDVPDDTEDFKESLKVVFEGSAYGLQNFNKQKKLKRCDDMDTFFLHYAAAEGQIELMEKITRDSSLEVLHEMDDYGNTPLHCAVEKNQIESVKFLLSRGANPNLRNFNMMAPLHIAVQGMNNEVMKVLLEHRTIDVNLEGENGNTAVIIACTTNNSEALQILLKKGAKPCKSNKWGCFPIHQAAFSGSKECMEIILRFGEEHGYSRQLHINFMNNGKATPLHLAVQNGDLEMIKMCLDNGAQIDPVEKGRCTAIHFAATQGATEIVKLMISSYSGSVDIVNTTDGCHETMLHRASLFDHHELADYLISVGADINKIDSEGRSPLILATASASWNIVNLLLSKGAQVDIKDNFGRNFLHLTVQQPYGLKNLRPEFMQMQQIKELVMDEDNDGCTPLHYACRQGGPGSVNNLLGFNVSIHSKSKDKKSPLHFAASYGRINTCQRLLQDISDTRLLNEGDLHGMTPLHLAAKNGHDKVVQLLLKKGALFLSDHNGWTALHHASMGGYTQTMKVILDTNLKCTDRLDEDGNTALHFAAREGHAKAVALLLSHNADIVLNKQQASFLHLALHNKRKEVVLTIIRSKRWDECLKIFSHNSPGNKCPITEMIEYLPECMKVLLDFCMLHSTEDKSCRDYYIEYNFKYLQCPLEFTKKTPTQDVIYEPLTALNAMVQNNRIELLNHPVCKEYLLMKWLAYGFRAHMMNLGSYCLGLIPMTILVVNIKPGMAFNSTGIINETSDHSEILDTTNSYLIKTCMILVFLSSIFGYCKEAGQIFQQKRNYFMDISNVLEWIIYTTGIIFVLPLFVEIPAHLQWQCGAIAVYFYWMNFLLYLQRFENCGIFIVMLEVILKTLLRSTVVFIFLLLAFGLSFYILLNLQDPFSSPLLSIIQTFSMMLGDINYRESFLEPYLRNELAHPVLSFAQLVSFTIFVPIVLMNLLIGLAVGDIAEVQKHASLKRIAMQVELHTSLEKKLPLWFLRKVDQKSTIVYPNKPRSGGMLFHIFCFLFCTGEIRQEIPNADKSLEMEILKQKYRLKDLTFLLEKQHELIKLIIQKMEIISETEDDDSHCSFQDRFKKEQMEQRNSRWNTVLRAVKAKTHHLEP

SMILES: Cc1cc(Cn2c(=O)c3c(ncn3[C@@H](C)C(=O)Nc3cccc(-c4ccc(C(F)(F)F)nc4)n3)n(C)c2=O)no1 [Compound 7, (S)-2-(3-methyl-1-((5-methylisoxazol-3-yl)methyl)-2,6-dioxo-2,3-dihydro-1H-purin-7(6H)-yl)-N-(6′-(trifluoromethyl)-[2,3′-bipyridin]-6-yl)propanamide]
pIC50 (human TRPA1): 8.30
Duration (0-2 Minutes) Average [1, 2]: 82.38 s
Duration (0-5 Minutes) Average [1, 2]: 200.38 s
Duration (0-2 Minutes) Average [1, 3]: 78.25 s
Duration (0-5 Minutes) Average [1, 3]: 173.75 s
Duration (0-2 Minutes) Average [1, 4]: 67.00 s
Duration (0-5 Minutes) Average [1, 4]: 170.50 s

SMILES: Cc1nc(Cn2c(=O)c3c(ncn3CC(=O)Nc3csc(-c4cnc(C(F)(F)F)c(C)c4)n3)n(C)c2=O)no1 [Compound 253, 2-(3-methyl-1-((5-methyl-1,2,4-oxadiazol-3-yl)methyl)-2,6-dioxo-2,3-dihydro-1H-purin-7(6H)-yl)-N-(2-(5-methyl-6-(trifluoromethyl)pyridin-3-yl)thiazol-4-yl)acetamide]
pIC50 (human TRPA1): 7.70
Duration (0-2 Minutes) Average [1, 5]: 79.3 s
Duration (0-5 Minutes) Average [1, 5]: 126.4 s
Duration (0-2 Minutes) Average [1, 6]: 78.8 s
Duration (0-5 Minutes) Average [1, 6]: 119.6 s
Duration (0-2 Minutes) Average [1, 7]: 76.4 s
Duration (0-5 Minutes) Average [1, 7]: 116.0 s

SMILES: Cc1cc(Cn2c(=O)c3c(ncn3[C@@H](C)C(=O)Nc3cccc(-c4cnc(C(F)(F)F)nc4)n3)n(C)c2=O)no1 [Compound 15, (S)-2-(3-methyl-1-((5-methylisoxazol-3-yl)methyl)-2,6-dioxo-2,3-dihydro-1H-purin-7(6H)-yl)-N-(6-(2-(trifluoromethyl)pyrimidin-5-yl)pyridin-2-yl)propanamide]
Duration (0-2 Minutes) Average [1, 8]: 76.00 s
Duration (0-5 Minutes) Average [1, 8]: 190.20 s

SMILES: CC(=O)Cn1c(=O)c2c(ncn2[C@@H](C)C(=O)Nc2ccnc(-c3ccc(N4CC5CC5C4)nc3)n2)n(C)c1=O (stereo partly drawn) [Compound 46, (2S)—N-(2-(6-(3-azabicyclo[3.1.0]hexan-3-yl)pyridin-3-yl)pyrimidin-4-yl)-2-(3-methyl-2,6-dioxo-1-(2-oxopropyl)-2,3-dihydro-1H-purin-7(6H)-yl)propanamide]
pIC50 (human TRPA1): 7.66

SMILES: CC(C(=O)Nc1ccnc(-c2cnc(C(F)(F)F)nc2)n1)n1cnc2c1c(=O)n(Cc1ccccn1)c(=O)n2C (stereo not shown) [Compound 141, 2-(3-methyl-2,6-dioxo-1-(pyridin-2-ylmethyl)-2,3-dihydro-1H-purin-7(6H)-yl)-N-(2′(trifluoromethyl)-2,5′-bipyrimidin-4-yl)propanamide]
pIC50 (human TRPA1): 7.10

SMILES: CC(=O)Cn1c(=O)c2c(ncn2[C@@H](C)C(=O)Nc2csc(-c3cnc(C)c(Cl)c3)n2)n(C)c1=O [Compound 81, (S)—N-(2-(5-chloro-6-methylpyridin-3-yl)thiazol-4-yl)-2-(3-methyl-2,6-dioxo-1-(2-oxopropyl)-2,3-dihydro-1H-purin-7(6H)-yl)propanamide]
pIC50 (human TRPA1): 8.00

SMILES: C[C@@H](C(=O)Nc1cncc(-c2cnc(N3CCC[C@@H]3C(F)(F)F)nc2)n1)n1cnc2c1c(=O)n(CC#N)c(=O)n2C [Compound 40, (S)-2-(1-(cyanomethyl)-3-methyl-2,6-dioxo-2,3-dihydro-1H-purin-7(6H)-yl)-N-(6-(2-((R)-2-(trifluoromethyl)pyrrolidin-1-yl)pyrimidin-5-yl)pyrazin-2-yl)propanamide]
pIC50 (human TRPA1): 8.10

SMILES: Cc1cc(Cn2c(=O)c3c(ncn3CC(=O)Nc3csc(-c4cnc(C(F)(F)F)nc4)n3)n(C)c2=O)no1 [Compound 259, 2-(3-methyl-1-((5-methylisoxazol-3-yl)methyl)-2,6-dioxo-2,3-dihydro-1H-purin-7(6H)-yl)-N-(2-(2-(trifluoromethyl)pyrimidin-5-yl)thiazol-4-yl)acetamide]
pIC50 (human TRPA1): 7.77

SMILES: CC(=O)Cn1c(=O)c2c(ncn2[C@@H](C)C(=O)Nc2ccnc(-c3cnc(N4CC5CC5C4)nc3)n2)n(C)c1=O (stereo partly drawn) [Compound 143, (2S)—N-(2′-(3-azabicyclo[3.1.0]hexan-3-yl)-2,5′-bipyrimidin-4-yl)-2-(3-methyl-2,6-dioxo-1-(2-oxopropyl)-2,3-dihydro-1H-purin-7(6H)-yl)propanamide]
pIC50 (human TRPA1): 7.70

SMILES: C[C@@H](C(=O)Nc1csc(-c2ccc(N3CC4CC4C3)nc2)n1)n1cnc2c1c(=O)n(CC#N)c(=O)n2C (stereo partly drawn) [Compound 66, (2S)—N-(2-(6-(3-azabicyclo[3.1.0]hexan-3-yl)pyridin-3-yl)thiazol-4-yl)-2-(1-(cyanomethyl)-3-methyl-2,6-dioxo-2,3-dihydro-1H-purin-7(6H)-yl)propanamide]
pIC50 (human TRPA1): 8.70

SMILES: CC(=O)Cn1c(=O)c2c(nc(C)n2CC(=O)Nc2cccc(-c3ccc(F)c(F)c3)n2)n(C)c1=O [Compound 193, N-(6-(3,4-difluorophenyl)pyridin-2-yl)-2-(3,8-dimethyl-2,6-dioxo-1-(2-oxopropyl)-1,2,3,6-tetrahydropurin-7-yl)acetamide]
pIC50 (human TRPA1): 7.35

SMILES: C[C@@H](C(=O)Nc1ccnc(-c2cnc(N3CCC[C@H]3C(F)(F)F)nc2)n1)n1cnc2c1c(=O)n(CC#N)c(=O)n2C [Compound 54, (S)-2-(1-(cyanomethyl)-3-methyl-2,6-dioxo-2,3-dihydro-1H-purin-7(6H)-yl)-N-(2′-((S)-2-(trifluoromethyl)pyrrolidin-1-yl)-2,5′-bipyrimidin-4-yl)propanamide]
pIC50 (human TRPA1): 8.15

The next lines start with results.

pIC50 (human TRPA1): 8.70
SMILES: Cc1nc(Cn2c(=O)c3c(ncn3[C@@H](C)C(=O)Nc3ccnc(-c4cnc(C)c(C(F)(F)F)c4)n3)n(C)c2=O)no1 [Compound 172, (S)-2-(3-methyl-1-((5-methyl-1,2,4-oxadiazol-3-yl)methyl)-2,6-dioxo-2,3-dihydro-1H-purin-7(6H)-yl)-N-(2-(6-methyl-5-(trifluoromethyl)pyridin-3-yl)pyrimidin-4-yl)propanamide]
Duration (0-2 Minutes) Average [1, 5]: 88.6 s
Duration (0-5 Minutes) Average [1, 5]: 151.0 s
Duration (0-2 Minutes) Average [1, 6]: 91.1 s
Duration (0-5 Minutes) Average [1, 6]: 149.0 s
Duration (0-2 Minutes) Average [1, 7]: 83.1 s
Duration (0-5 Minutes) Average [1, 7]: 151.6 s

pIC50 (human TRPA1): 8.40
SMILES: CCC(=O)Cn1c(=O)c2c(ncn2[C@@H](C)C(=O)Nc2cccc(-c3cnc(C)c(C(F)(F)F)c3)n2)n(C)c1=O [Compound 135, (S)-2-(3-methyl-2,6-dioxo-1-(2-oxobutyl)-2,3-dihydro-1H-purin-7(6H)-yl)-N-(6′-methyl-5′-(trifluoromethyl)-[2,3′-bipyridin]-6-yl)propanamide]
Duration (0-2 Minutes) Average [1, 5]: 91.1 s
Duration (0-5 Minutes) Average [1, 5]: 153.3 s
Duration (0-2 Minutes) Average [1, 6]: 80.3 s
Duration (0-5 Minutes) Average [1, 6]: 120.3 s
Duration (0-2 Minutes) Average [1, 7]: 74.3 s
Duration (0-5 Minutes) Average [1, 7]: 139.0 s

pIC50 (human TRPA1): 8.40
SMILES: COCC(=O)Cn1c(=O)c2c(ncn2[C@@H](C)C(=O)Nc2csc(-c3ccc(N4CC5C(C4)C5(F)F)nc3)n2)n(C)c1=O (stereo partly drawn) [Compound 269, (2S)—N-(2-(6-(6,6-difluoro-3-azabicyclo[3.1.0]hexan-3-yl)pyridin-3-yl)thiazol-4-yl)-2-(1-(3-methoxy-2-oxopropyl)-3-methyl-2,6-dioxo-2,3-dihydro-1H-purin-7(6H)-yl)propanamide]

pIC50 (human TRPA1): 8.52
SMILES: CCC(=O)Cn1c(=O)c2c(ncn2[C@@H](C)C(=O)Nc2cncc(-c3cnc(N4CC5C(C4)C5(F)F)nc3)n2)n(C)c1=O (stereo partly drawn) [Compound 75, (2S)—N-(6-(2-(6,6-difluoro-3-azabicyclo[3.1.0]hexan-3-yl)pyrimidin-5-yl)pyrazin-2-yl)-2-(3-methyl-2,6-dioxo-1-(2-oxobutyl)-2,3-dihydro-1H-purin-7(6H)-yl)propanamide]

pIC50 (human TRPA1): 8.52
SMILES: Cc1cc(Cn2c(=O)c3c(ncn3[C@@H](C)C(=O)Nc3cccc(-c4cncc(C(F)(F)F)c4)n3)n(C)c2=O)no1 [Compound 156, (S)-2-(3-methyl-1-((5-methylisoxazol-3-yl)methyl)-2,6-dioxo-2,3-dihydro-1H-purin-7(6H)-yl)-N-(5′-(trifluoromethyl)-2,3′-bipyridin-6-yl)propanamide]

pIC50 (human TRPA1): 8.70
SMILES: C[C@@H](C(=O)Nc1csc(-c2cnc(N3CC4C(C3)C4(F)F)nc2)n1)n1cnc2c1c(=O)n(CC#N)c(=O)n2C (stereo partly drawn) [Compound 58, (2S)-2-(1-(cyanomethyl)-3-methyl-2,6-dioxo-2,3-dihydro-1H-purin-7(6H)-yl)-N-(2-(2-(6,6-difluoro-3-azabicyclo[3.1.0]hexan-3-yl)pyrimidin-5-yl)thiazol-4-yl)propanamide]
